Laboratory results published in patent US9210927B2, “Pesticidal compositions and processes related thereto” (Dow AgroSciences LLC, priority 2013, dated 2015).

Legend:
Format in all cases: in vivo
[1] = test system: GPA (Myzus persicae); assay: Bioassays on Green Peach Aphid (GPA), foliar spray on cabbage seedlings; conditions: 72 h, corrected % control (Abbott), 200 ppm spray on cabbage seedlings, three days, read-out: GPA Rating
Description: Bioassays on Green Peach Aphid (“GPA”) (Myzus persicae) Certain molecules disclosed in this document were tested against GPA using procedures described in the following example. In the reporting of the results, the “GPA Rating Table” was used (See Table Section). Cabbage seedlings grown in 3-inch pots, with 2-3 small (3-5 cm) true leaves, were used as test substrate. The seedlings were infested with 20-50 GPA (wingless adult and nymph stages) one day prior to chemical application. Four pots with individual seedlings were used for each treatment. Test compounds (2 mg) were dissolved in 2 mL of acetone/MeOH (1:1) solvent, forming stock solutions of 1000 ppm test compound. The stock solutions were diluted 5× with 0.025% Tween 20 in H2O to obtain the solution at 200 ppm test compound. A hand-held aspirator-type sprayer was used for spraying a solution to both sides of […] leaves until runoff. Reference plants (solvent check) were sprayed with the diluent only containing 20% by volume of acetone/MeOH (1:1) solvent. Treated plants were held in a holding room for three days at approximately 25° C. and ambient relative humidity (RH) prior to grading. Evaluation was conducted by counting the number of live aphids per plant under a microscope. Percent Control was measured by using Abbott's correction formula (W. S. Abbott, “A Method of Computing the Effectiveness of an Insecticide” J. Econ. Entomol. 18 (1925), pp. 265-267) as follows. Corrected % Control=100*(X−Y)/X • where • X=No. of live aphids on solvent check plants and • Y=No. of live aphids on treated plants The results are indicated in the table entitled “Table 3: Assay Results” (See Table Section).

[2] = test system: CEW (Helicoverpa zea); assay: Bioassays on Corn Earworm (CEW), 128-well diet tray assay; conditions: Helicoverpa zea, 168 h; percent mortality, second instar larvae, 50 μg/cm^2 on artificial diet, five to seven days, 25° C.; read-out: CEW Rating
Method in brief: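 Second-instar larvae (one to five per well) placed on artificial diet treated with 50 μg/cm^2 compound in 90:10 acetone-water and dried, eight wells per compound. Held 25 °C, 14:10 light-dark, five to seven days; percent mortality scored per well and averaged.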

[3] = test system: BAW (Spodoptera exigua); assay: Bioassays on Beet Armyworm (BAW), 128-well diet tray assay; conditions: Spodoptera exigua, 168 h, read-out: BAW Rating
Method in brief: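 Second-instar larvae (one to five per well) placed on artificial diet treated with 50 μg/cm^2 compound in 90:10 acetone-water, eight wells per compound. Held covered at 25° C., 14:10 light-dark for five to seven days; percent mortality averaged across wells.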

| SMILES | pest or weed control at 200 ppm [1] [%] | pest or weed control at 50 µg/cm2 [2] [%] | pest or weed control at 50 µg/cm2 [3] [%] |
| --- | --- | --- | --- |
| CNC(=O)c1ccc(/C=C/C(c2cc(Cl)cc(Cl)c2)C(F)(F)F)cc1 (stereo not shown) [AC1] | 0 to 80 |  |  |
| CN(C)C(=O)c1ccc(/C=C/C(c2cc(Cl)cc(Cl)c2)C(F)(F)F)cc1 (stereo not shown) [AC3] | 0 to 80 |  |  |
| O=C(NCC(F)(F)F)c1ccc(/C=C/C(c2cc(Cl)cc(Cl)c2)C(F)(F)F)cc1 (stereo not shown) [AC4] | 0 to 80 | 50 to 100 |  |
| O=C(c1ccc(/C=C/C(c2cc(Cl)cc(Cl)c2)C(F)(F)F)cc1)N1CCOCC1 (stereo not shown) [AC5] | 0 to 80 |  |  |
| Cc1cc(/C=C/C(c2cc(Cl)cc(Cl)c2)C(F)(F)F)ccc1C(=O)NCC(F)(F)F (stereo not shown) [AC6, (E)-4-(3-(3,5-Dichlorophenyl)-4,4,4-trifluorobut-1-enyl)-2-methyl-N-(2,2,2-trifluoroethyl)benzamide] | 0 to 80 | 50 to 100 |  |
| Cc1cc(/C=C/C(c2cc(Cl)cc(Cl)c2)C(F)(F)F)ccc1C(=O)NCc1ccc(Cl)nc1 (stereo not shown) [AC7] | 0 to 80 | 50 to 100 | 50 to 100 |
| Cc1cc(/C=C/C(c2cc(Cl)cc(Cl)c2)C(F)(F)F)ccc1C(=O)N1CCCC1=O (stereo not shown) [AC8] | 0 to 80 | 0 to 50 |  |
| Cc1cc(/C=C/C(c2cc(Cl)cc(Cl)c2)C(F)(F)F)ccc1C(=O)NCc1ccccc1F (stereo not shown) [AC9] | 0 to 80 | 50 to 100 | 50 to 100 |
| Cc1cc(/C=C/C(c2cc(Cl)cc(Cl)c2)C(F)(F)F)ccc1C(=O)NC1CSC1 (stereo not shown) [AC10] | 0 to 80 | 50 to 100 | 50 to 100 |
| Cc1cc(/C=C/C(c2cc(Cl)cc(Cl)c2)C(F)(F)F)ccc1C(=O)NC1CS(=O)(=O)C1 (stereo not shown) [AC13] | 0 to 80 | 50 to 100 | 50 to 100 |
| Cc1cc(/C=C/C(c2cc(Cl)cc(Cl)c2)C(F)(F)F)ccc1C(=O)NCc1cnc(Cl)s1 (stereo not shown) [AC15] | 0 to 80 | 50 to 100 | 50 to 100 |
| Cc1cc(/C=C/C(c2cc(Cl)cc(Cl)c2)C(F)(F)F)ccc1C(=O)NNc1ccccc1F (stereo not shown) [AC17] | 0 to 80 | 50 to 100 | 50 to 100 |
| Cc1cc(/C=C/C(c2cc(Cl)cc(Cl)c2)C(F)(F)F)ccc1C(=O)NCc1ncccn1 (stereo not shown) [AC18] | 0 to 80 | 50 to 100 | 50 to 100 |
| Cc1cc(/C=C/C(c2cc(Cl)cc(Cl)c2)C(F)(F)F)ccc1C(=O)NCC1CCOC1 (stereo not shown) [AC19] | 0 to 80 |  |  |
| Cc1cc(/C=C/C(c2cc(Cl)c(Cl)c(Cl)c2)C(F)(F)F)ccc1C(=O)NC1CSC1 (stereo not shown) [AC23] | 0 to 80 | 50 to 100 | 50 to 100 |
| Cc1cc(/C=C/C(c2cc(Cl)c(Cl)c(Cl)c2)C(F)(F)F)ccc1C(=O)NCc1cnc(Cl)s1 (stereo not shown) [AC26] | 0 to 80 | 50 to 100 | 50 to 100 |
| Cc1cc(/C=C/C(c2cc(Cl)c(Cl)c(Cl)c2)C(F)(F)F)ccc1C(=O)NC(C)(C)c1ccccn1 (stereo not shown) [AC27] | 0 to 80 | 50 to 100 | 50 to 100 |
| O=C(NCc1ccc(Cl)nc1)c1ccc(/C=C/C(c2cc(Cl)c(Cl)c(Cl)c2)C(F)(F)F)cc1Cl (stereo not shown) [AC28] | 0 to 80 | 50 to 100 | 50 to 100 |
| O=C(NC1CSC1)c1ccc(/C=C/C(c2cc(Cl)c(Cl)c(Cl)c2)C(F)(F)F)cc1Cl (stereo not shown) [AC29] | 0 to 80 | 50 to 100 | 50 to 100 |
| O=C(NC1CS(=O)(=O)C1)c1ccc(/C=C/C(c2cc(Cl)c(Cl)c(Cl)c2)C(F)(F)F)cc1Cl (stereo not shown) [AC30] | 0 to 80 | 50 to 100 | 50 to 100 |
| O=C(NCc1ccc(Cl)nc1)c1ccc(/C=C/C(c2cc(Cl)c(Cl)c(Cl)c2)C(F)(F)F)cc1Br (stereo not shown) [AC31] | 0 to 80 | 50 to 100 | 50 to 100 |

| SMILES | pest or weed control at 200 ppm [1] [%] | pest or weed control at 50 µg/cm2 [2] [%] | pest or weed control at 50 µg/cm2 [3] [%] |
| --- | --- | --- | --- |
| O=C(NC1CSC1)c1ccc(/C=C/C(c2cc(Cl)c(Cl)c(Cl)c2)C(F)(F)F)cc1Br (stereo not shown) [AC32] | 0 to 80 | 50 to 100 | 50 to 100 |
| O=C(NC1CS(=O)(=O)C1)c1ccc(/C=C/C(c2cc(Cl)c(Cl)c(Cl)c2)C(F)(F)F)cc1Br (stereo not shown) [AC33] | 0 to 80 | 50 to 100 | 50 to 100 |
| O=C(NC1CSC1)c1ccc(/C=C/C(c2cc(Cl)c(Cl)c(Cl)c2)C(F)(F)F)cc1C(F)(F)F (stereo not shown) [AC34] | 0 to 80 | 50 to 100 | 50 to 100 |
| O=C(NCc1ccc(Cl)nc1)c1ccc(/C=C/C(c2cc(Cl)c(Cl)c(Cl)c2)C(F)(F)F)cc1C(F)(F)F (stereo not shown) [AC36] | 0 to 80 | 50 to 100 | 50 to 100 |
| Cc1cc(/C=C/C(c2ccc(Cl)c(Cl)c2)C(F)(F)F)ccc1C(=O)NCc1ccc(Cl)nc1 (stereo not shown) [AC37] | 0 to 80 | 50 to 100 | 50 to 100 |
| Cc1cc(/C=C/C(c2cc(Cl)cc(Cl)c2)C(F)(F)F)ccc1C(=O)NCc1cnccn1 (stereo not shown) [AC43] | 0 to 80 | 50 to 100 | 50 to 100 |
| Cc1cc(/C=C/C(c2cc(Cl)cc(Cl)c2)C(F)(F)F)ccc1C(=O)NCC(=O)NNC(=O)C1CC1 (stereo not shown) [AC47] | 0 to 80 |  |  |
| Cc1cc(/C=C/C(c2cc(Cl)cc(Cl)c2)C(F)(F)F)ccc1C(=O)NCc1ccc(Cl)cc1 (stereo not shown) [AC48] | 0 to 80 | 50 to 100 | 50 to 100 |
| O=C(NCc1ccc(Cl)nc1)c1ccc(/C=C/C(c2cc(Cl)cc(Cl)c2)C(F)(F)F)cc1F (stereo not shown) [AC49] | 0 to 80 | 50 to 100 | 50 to 100 |
| Cc1cc(/C=C/C(c2cc(Cl)cc(Cl)c2)C(F)(F)F)ccc1C(=O)NCc1nccn1C (stereo not shown) [AC50] | 0 to 80 |  | 50 to 100 |
| Cc1cc(/C=C/C(c2cc(Cl)cc(Cl)c2)C(F)(F)F)ccc1C(=O)NCC(=O)N(C)CC(F)(F)F (stereo not shown) [AC51] | 0 to 80 | 50 to 100 | 50 to 100 |
| COc1cc(/C=C/C(c2cc(Cl)c(F)c(Cl)c2)C(F)(F)F)ccc1C(=O)NCc1ccc(Cl)nc1 (stereo not shown) [AC70] | 0 to 80 |  |  |
| Cc1cc(/C=C\C(c2cc(Cl)cc(Cl)c2)C(F)(F)F)ccc1C(=O)NCc1ccc(Cl)nc1 (stereo not shown) [AC94] | 0 to 80 | 0 to 50 |  |
| Cc1cc(/C=C/C(c2cc(Cl)cc(Cl)c2)C(F)(F)F)ccc1C(=O)N(C)Cc1ccc(Cl)nc1 (stereo not shown) [AC117] | 0 to 80 |  | 50 to 100 |
| CC(C)(C)C(=O)NCc1ccc(/C=C/C(c2cc(Cl)c(Cl)c(Cl)c2)C(F)(F)F)cc1Cl (stereo not shown) [CC12] | 0 to 80 |  |  |
| O=C(NCc1ccc(/C=C/C(c2cc(Cl)c(Cl)c(Cl)c2)C(F)(F)F)cc1Br)C1CC1 (stereo not shown) [CC26] | 0 to 80 |  | 50 to 100 |
| CC(C)(C)OC(=O)NCc1ccc(/C=C/C(c2cc(Cl)c(Cl)c(Cl)c2)C(F)(F)F)cc1Cl (stereo not shown) [CC39] | 0 to 80 |  |  |
| COC(=O)C(=O)NCc1ccc(/C=C/C(c2cc(Cl)c(Cl)c(Cl)c2)C(F)(F)F)cc1Cl (stereo not shown) [CC41, (E)-Methyl 2-((2-chloro-4-(4,4,4-trifluoro-3-(3,4,5-trichlorophenyl)but-1-en-1-yl)benzyl)amino)-2-oxoacetate] | 0 to 80 |  |  |
| O=C(CC(F)(F)F)NOc1ccc(/C=C/C(c2cc(Cl)c(Cl)c(Cl)c2)C(F)(F)F)cc1 (stereo not shown) [CC53] | 0 to 80 |  |  |
| C/C(=C\C(c1cc(Cl)cc(Cl)c1)C(F)(F)F)c1ccc(-n2cncn2)cc1 (stereo not shown) [DC68, (E)-1-(4-(4-(3,5-Dichlorophenyl)-5,5,5-trifluoropent-2-en-2-yl)phenyl)-1H-1,2,4-triazole] |  | 50 to 100 | 50 to 100 |
| COC(/C=C/c1ccc(-n2cncn2)cc1)(c1cc(Cl)cc(Cl)c1)C(F)(F)F (stereo not shown) [DC70, (E)-1-(4-(3-(3,5-Dichlorophenyl)-4,4,4-trifluoro-3-methoxybut-1-en-1-yl)phenyl)-1H-1,2,4-triazole] |  | 50 to 100 | 50 to 100 |
